Data published in US12617817B2, “Carrier peptide fragment and use thereof” (TOAGOSEI CO., LTD., priority 2020, dated 2026).
FAM = fluorescein amidite (fluorescent dye, FAM)

System: HeLa cells
Experiment: Evaluating cell penetrating ability by flow cytometry (FAM fluorescence) in HeLa cells
Type: cell-based, human
Details: for shift of flow cytometry histogram on the X-axis (fluorescent intensity) in comparison with Example 3 (only FAM): FIG. 1; for MFI (mean fluorescent intensity): additive 10 μM, 0.5% DMSO, 20 hours incubation at 37° C., flow cytometry FL2 detector, average of triplicate
Description: The cell penetrating ability of sample 1 and sample 2 was evaluated using HeLa cells (cell line established from human cervical cancer cells). In Table 2, Example 1 indicates a test of addition of sample 1 to a culture solution of HeLa cells, Example 2 indicates a test of addition of sample 2, Example 3 indicates a test of addition of FAM diluted with DMSO, and Example 4 indicates a test of addition of DMSO only.
HeLa cells were cultured in an ordinary culture medium, DMEM (Dulbecco's modified Eagle's medium, manufactured by Fuji Film Wako Pure Chemical Industries, Cat. No. 043-30085) containing 10% FBS (fetal bovine serum).
HeLa cells adhering to the culture plate were washed with PBS, 0.25% trypsin/EDTA solution was added, and the cells were incubated for 3 minutes at 37° C. After incubation, the same DMEM medium containing 10% FBS was added to deactivate the trypsin, and the cells were precipitated by 5 minutes of centrifugation at 150×g. The supernatant produced by centrifugation was removed, and the same DMEM containing 10% FBS was added to the precipitate (cell pellet) to prepare an approximately 1×10^5 cells/mL cell suspension. 2 mL of the cell suspension was added to the wells of a commercial 6-well plate (Iwaki microplate commercially available from AGC techno glass Co., Ltd) to seed the cells at a rate of approximately 2×10^5 cells/well. This was then cultured for 3 hours at 37° C. under conditions of 5% CO2, causing the cells to adhere to the bottom of the wells. Because the cell penetrating ability evaluation is performed in triplicate, cells were seeded in 3 wells for the test of Example 1, and the following operations were performed on each well.
Next, the above 2 mM sample solution 1 was diluted with the above DMEM containing 10% FBS to prepare a sample solution 1 in which the concentration of the sample 1 was 20 μM. 1 mL of the culture supernatant was removed from each well after the 3 hours of culture, and 1 mL of 20 μM sample solution 1 was added to the well so that the sample 1 concentration of the culture solution in the well was 10 μM and the DMSO concentration was 0.5%. This was then incubated for 20 hours at 37° C. under conditions of 5% CO2. After this 20-hour incubation, the culture supernatant was removed from the well, and the cells in the well were washed twice with 1 mL of PBS. 200 μL of 0.25% trypsin/EDTA solution was then added to the well, and the cells were incubated for 3 minutes at 37° C. After this incubation, 400 μL of the above DMEM containing 10% FBS was added to the well to deactivate the trypsin, after which the cell suspension in the well was transferred to a tube, and the cells were collected. 600 μL of PBS was then added to each well to wash the well. The PBS in the well was then transferred to the above tube to collect the cells remaining in the well in the tube. This tube was centrifuged for 5 minutes under conditions of 210×g at 4° C. After centrifugation the supernatant was removed, and the precipitate (cell pellet) was suspended (washed) in 1 mL of PBS and centrifuged under the same conditions. This operation was repeated twice to remove the supernatant and obtain cells (a cell pellet) that had been cultured in medium containing the sample 1.
The cells (cell pellet) obtained above were analyzed by flow cytometry to assess the cell penetrating ability of the sample 1. A flow cytometer (On-Chip Biotechnologies Co., Ltd.) was used for the analysis.
The cell pellet obtained above was suspended in 50 μL of PBS for purposes of this analysis. A further 50 μL of 2× sample buffer for flow cytometry was added to this suspension to prepare a cell suspension for analysis.
Gating was performed with the flow cytometer based on forward scatter (FSC) and side scatter (SSC), a gate was set for the cell population under analysis, and the cell population within this gate was measured for fluorescent intensity. Analysis was performed so that the cell population composed of at least 5,000 cells. […]

Substance	shift of flow cytometry histogram on the X-axis (fluorescent intensity) in comparison with Example 3 (only FAM) (10 μM, 20 hours)	efficiency (cell penetrating ability), times higher than Example 2, from MFI values (10 μM, 20 hours, comparison of MFI of Example 1 with Example 2) [times]	MFI (mean fluorescent intensity)
FAM-KKRTLRKSNRKKR-CONH2 ({FAM}-KKRTLRKSNRKKR-NH2) [Example 1]	shifted to the right	4	62
FAM-KKRTLRKNDRKKR-CONH2 ({FAM}-KKRTLRKNDRKKR-NH2) [Example 2]	shifted to the right		15.5
5(6)-carboxyfluorescein [Example 3]			6
